The source of these data is ChEMBL document CHEMBL1141004, “N-((8-hydroxy-5-substituted-quinolin-7-yl)(phenyl)methyl)-2-phenyloxy/amino-acetamide inhibitors of ADAMTS-5 (Aggrecanase-2)” (Bioorg Med Chem Lett, 2008).

A short description of data set [1]: Metabolic stability in rat liver microsomes assessed as half life. Type of data set: ADME, Microsome. Background: Liver microsomes are vesicles of endoplasmic reticulum, rich in cytochrome P450 enzymes.
The target in data set [2] is Macrophage metalloelastase (Homo sapiens) (UniProt P39900). Description: Inhibition of MMP12 at […] by FRET assay.
Chain of Macrophage metalloelastase (Homo sapiens) (P39900 106-470 limits assumed): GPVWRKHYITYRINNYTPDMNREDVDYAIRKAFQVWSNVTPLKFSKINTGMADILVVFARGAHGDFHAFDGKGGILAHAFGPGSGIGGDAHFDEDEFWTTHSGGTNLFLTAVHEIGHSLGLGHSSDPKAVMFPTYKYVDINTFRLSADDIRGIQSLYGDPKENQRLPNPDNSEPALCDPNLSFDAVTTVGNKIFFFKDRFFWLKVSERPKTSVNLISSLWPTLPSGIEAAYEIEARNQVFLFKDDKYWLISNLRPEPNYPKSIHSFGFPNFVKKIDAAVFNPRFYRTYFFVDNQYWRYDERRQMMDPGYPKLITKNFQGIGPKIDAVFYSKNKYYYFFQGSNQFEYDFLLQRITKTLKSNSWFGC
Data set [3] has as its target Collagenase 3 (Homo sapiens, UniProt P45452). Put plainly: Inhibition of MMP13 by FRET assay.
The target in data set [4] is T1, A disintegrin and metalloproteinase with thrombospondin motifs 4 (Homo sapiens, UniProt O75173).
T1 sequence (O75173 whole entry): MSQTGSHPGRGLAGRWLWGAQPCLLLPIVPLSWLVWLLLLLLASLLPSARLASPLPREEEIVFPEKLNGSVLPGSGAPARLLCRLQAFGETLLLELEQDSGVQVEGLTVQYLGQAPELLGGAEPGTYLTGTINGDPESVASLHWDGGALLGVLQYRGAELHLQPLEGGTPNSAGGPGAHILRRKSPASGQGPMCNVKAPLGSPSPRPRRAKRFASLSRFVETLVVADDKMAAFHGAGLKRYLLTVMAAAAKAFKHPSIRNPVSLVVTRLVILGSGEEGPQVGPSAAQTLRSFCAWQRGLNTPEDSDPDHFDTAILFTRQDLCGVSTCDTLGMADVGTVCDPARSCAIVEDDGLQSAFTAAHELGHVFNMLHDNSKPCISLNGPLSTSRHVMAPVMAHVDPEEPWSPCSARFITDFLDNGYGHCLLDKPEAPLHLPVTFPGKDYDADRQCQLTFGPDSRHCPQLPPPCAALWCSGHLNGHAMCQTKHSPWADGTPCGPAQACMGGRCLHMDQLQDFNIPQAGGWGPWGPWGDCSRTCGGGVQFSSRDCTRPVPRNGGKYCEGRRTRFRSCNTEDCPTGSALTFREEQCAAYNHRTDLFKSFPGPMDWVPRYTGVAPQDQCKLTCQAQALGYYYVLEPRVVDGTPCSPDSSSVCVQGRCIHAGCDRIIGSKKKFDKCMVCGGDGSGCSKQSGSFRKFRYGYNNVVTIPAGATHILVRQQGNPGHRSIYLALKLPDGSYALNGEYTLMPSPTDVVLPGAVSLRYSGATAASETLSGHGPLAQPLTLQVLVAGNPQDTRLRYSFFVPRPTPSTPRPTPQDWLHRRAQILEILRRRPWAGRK
Put plainly: Inhibition of ADAMTS4 by FRET assay.

The target of data set [5] is Cytochrome P450 3A4 (Homo sapiens, UniProt P08684). Put plainly: Inhibition of CYP3A4 at 30 uM by FRET assay. Type of data set: ADME.
Chain of Cytochrome P450 3A4 (P08684 whole entry): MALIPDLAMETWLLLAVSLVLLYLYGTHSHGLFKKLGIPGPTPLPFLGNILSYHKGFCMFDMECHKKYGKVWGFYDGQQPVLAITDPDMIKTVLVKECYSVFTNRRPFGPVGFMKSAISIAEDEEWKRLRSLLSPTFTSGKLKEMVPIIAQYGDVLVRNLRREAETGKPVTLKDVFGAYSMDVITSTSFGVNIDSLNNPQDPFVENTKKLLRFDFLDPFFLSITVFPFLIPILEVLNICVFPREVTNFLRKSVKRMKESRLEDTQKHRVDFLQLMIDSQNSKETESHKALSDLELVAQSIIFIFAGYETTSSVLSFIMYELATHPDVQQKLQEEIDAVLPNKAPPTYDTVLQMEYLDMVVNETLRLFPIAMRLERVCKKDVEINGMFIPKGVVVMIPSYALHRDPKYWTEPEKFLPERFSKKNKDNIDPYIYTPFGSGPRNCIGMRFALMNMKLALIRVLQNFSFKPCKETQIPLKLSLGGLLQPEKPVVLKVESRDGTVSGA
Data set [6] has as its target T2, A disintegrin and metalloproteinase with thrombospondin motifs 5 (Homo sapiens, UniProt Q9UNA0).
T2 sequence (Q9UNA0 whole entry): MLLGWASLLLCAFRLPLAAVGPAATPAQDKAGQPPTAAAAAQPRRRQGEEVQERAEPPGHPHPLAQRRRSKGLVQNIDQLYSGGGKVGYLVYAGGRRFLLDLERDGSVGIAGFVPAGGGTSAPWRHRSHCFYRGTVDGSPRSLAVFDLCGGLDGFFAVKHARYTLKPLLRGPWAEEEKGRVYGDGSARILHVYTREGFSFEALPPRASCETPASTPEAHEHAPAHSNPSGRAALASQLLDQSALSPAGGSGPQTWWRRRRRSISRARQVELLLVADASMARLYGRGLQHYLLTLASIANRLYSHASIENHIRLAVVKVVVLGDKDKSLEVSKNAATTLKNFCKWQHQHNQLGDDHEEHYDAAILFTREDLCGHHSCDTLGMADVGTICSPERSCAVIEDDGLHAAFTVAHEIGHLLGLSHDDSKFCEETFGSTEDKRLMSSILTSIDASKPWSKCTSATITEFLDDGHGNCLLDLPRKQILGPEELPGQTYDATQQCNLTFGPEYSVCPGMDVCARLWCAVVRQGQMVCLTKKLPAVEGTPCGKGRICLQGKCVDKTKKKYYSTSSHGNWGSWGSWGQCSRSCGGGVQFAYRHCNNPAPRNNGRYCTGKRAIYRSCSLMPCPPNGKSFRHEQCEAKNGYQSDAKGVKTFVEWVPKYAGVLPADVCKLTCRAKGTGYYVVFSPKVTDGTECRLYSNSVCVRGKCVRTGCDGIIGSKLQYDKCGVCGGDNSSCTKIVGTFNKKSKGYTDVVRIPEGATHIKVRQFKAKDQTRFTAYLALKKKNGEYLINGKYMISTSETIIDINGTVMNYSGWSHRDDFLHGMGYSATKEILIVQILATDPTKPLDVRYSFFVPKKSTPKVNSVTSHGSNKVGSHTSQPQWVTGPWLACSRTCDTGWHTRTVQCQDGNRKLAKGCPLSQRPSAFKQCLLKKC
Put plainly: Inhibition of ADAMTS5 by FRET assay.

In the case of `O=C(COc1ccccc1)NC(c1cccc([N+](=O)[O-])c1)c1cc(Cl)c2cccnc2c1O` (stereo not given), the half-life (in general, the time needed for the level to fall by half in the phase considered) in data set [1] was determined as 6 min. In addition, the inhibition (as a rule, how much of the control response was suppressed) in data set [2] was determined as 45%. For the same compound, the values for the IC50 in data set [3] and in data set [4] were above 200 µM and 1.9 µM, respectively. In addition, in data set [5], the inhibition (INH) is 26%.
As to `Cc1ccc(C(NC(=O)CNCc2ccccc2)c2cc(Cl)c3cccnc3c2O)cc1` (stereo not given), the half-life in data set [1] was found to be 10 min. In data set [5], the inhibition (INH) is 29%.
The like results for `Cc1cc(C(NC(=O)COc2ccccc2)c2cccc([N+](=O)[O-])c2)c(O)c2ncccc12` (stereo not given) were, in that order, 6 min and 33%.
In the case of `CC(=O)c1ccc(NCC(=O)NC(c2ccc(C)cc2)c2cc(Cl)c3cccnc3c2O)cc1` (stereo not given), the half-life in data set [1] amounted to 4 min. In data set [5], this compound yielded an inhibition (INH) of 45%.
For `Cc1ccc(C(NC(=O)CN(C)Cc2ccccc2)c2cc(Cl)c3cccnc3c2O)cc1` (stereo not given) the same measures were 16 min and 30%.
`Cc1cc(NCC(=O)NC(c2ccccc2Cl)c2cc(Cl)c3cccnc3c2O)ccc1Cl` (stereo not given): the half-life in data set [1] is 8 min. This compound also registered an inhibition (INH) in data set [5] of 11%.
With `Cc1cc(OCC(=O)NC(c2cccc([N+](=O)[O-])c2)c2cc(Cl)c3cccnc3c2O)ccc1Cl` (stereo not given), in data set [1], the half-life was 30 min. The IC50 (commonly the concentration that gives 50% inhibition) in data set [6] is above 10 µM. Moreover, in data set [5], the inhibition (INH) turned out to be 19%.
`O=C(COc1ccccc1)NC(c1ccccc1Cl)c1cc(Cl)c2cccnc2c1O` (stereo not given) gave an inhibition in data set [2] of 50%. For the same compound, the values for the IC50 in data set [3] and in data set [4] were above 67 µM and 2.4 µM, respectively. The compound further yielded an inhibition (INH) in data set [5] of 43%.
As for `O=C(COc1ccccc1)NC(c1ccccc1[N+](=O)[O-])c1cc(Cl)c2cccnc2c1O` (stereo not given), the half-life in data set [1] came out at 5 min. Further, in data set [5], the inhibition (INH) was 38%.
Take `Cc1ccc(C(NC(=O)CN(C)c2ccccc2)c2cc(Cl)c3cccnc3c2O)cc1` (stereo not given): the half-life in data set [1] amounted to 6 min. The compound also had an inhibition (INH) in data set [5] of 20%.
`Cc1ccc(C(NC(=O)CNc2ccc(C#N)cc2)c2cc(Cl)c3cccnc3c2O)cc1` (stereo not given) gave an inhibition (INH) in data set [5] of 29%.
The same measure, in the same setting: next, `O=C(CNCc1ccccc1)NC(c1cccc(F)c1)c1cc(Cl)c2cccnc2c1O` (stereo not given): 32%; `Cc1ccc(C(NC(=O)CNc2cccc(N(C)C)c2)c2cc(Cl)c3cccnc3c2O)cc1` (stereo not given): 37%.
In the case of `CC(=O)Nc1ccc(NCC(=O)NC(c2cccc([N+](=O)[O-])c2)c2cc(Cl)c3cccnc3c2O)cc1` (stereo not given), the half-life in data set [1] is 30 min. Further, the inhibition (INH) in data set [5] was found to be 8%.
On to `Cc1ccc(OCC(=O)NC(c2ccccc2)c2cc(Cl)c3cccnc3c2O)cc1` (stereo not given), for which, in data set [5], the inhibition (INH) came to 69%.
On the same count and under the same terms, next, `O=C(COc1ccccc1)NC(c1ccc(Cl)cc1)c1cc(Cl)c2cccnc2c1O` (stereo not given): 38%; `CN(CC(=O)NC(c1ccccc1Cl)c1cc(Cl)c2cccnc2c1O)c1ccccc1` (stereo not given): 34%.
Same read-out and setting: next, `CN(C)c1cccc(OCC(=O)NC(c2cccc(F)c2)c2cc(Cl)c3cccnc3c2O)c1` (stereo not given): 53%.
Regarding `CN(CC(=O)NC(c1ccccc1Cl)c1cc(Cl)c2cccnc2c1O)Cc1ccccc1` (stereo not given), the half-life in data set [1] worked out at 5 min. For the same compound, the inhibition (INH) in data set [5] was 16%.
In the case of `O=C(COc1ccccc1)NC(c1ccccc1C(F)(F)F)c1cc(Cl)c2cccnc2c1O` (stereo not given), the inhibition (INH) in data set [5] was 37%.
Compound `COc1ccc(OCC(=O)NC(c2ccc(OC)cc2)c2cc(Cl)c3cccnc3c2O)cc1` (stereo not given) had an inhibition in data set [2] of 37%. Further, the IC50 in data set [3] is above 200 µM; in data set [4], above 50 µM. This compound also came in with an inhibition (INH) in data set [5] of 74%.
As to `COc1ccc(C(NC(=O)COc2cccnc2)c2cc(Cl)c3cccnc3c2O)cc1` (stereo not given), the half-life in data set [1] is 16 min. In data set [5], this compound registered an inhibition (INH) of 33%.
Turning to `O=C(COc1cccnc1)NC(c1cccc(F)c1)c1cc(Cl)c2cccnc2c1O` (stereo not given), the inhibition (INH) in data set [5] was 35%.
On the same count and under the same terms, the value for `O=C(COc1cccnc1)NC(c1cccc([N+](=O)[O-])c1)c1cc(Cl)c2cccnc2c1O` (stereo not given) was 67%; that for `CN(C)c1cccc(OCC(=O)NC(c2ccccc2Cl)c2cc(Cl)c3cccnc3c2O)c1` (stereo not given) was 38%.
In the case of `O=C(COCc1ccccc1)NC(c1cccc(F)c1)c1cc(Cl)c2cccnc2c1O` (stereo not given), the half-life in data set [1] is 24 min. In data set [5], this compound showed an inhibition (INH) of 46%.
Consider `COc1ccc(C(NC(=O)COc2ccc(Cl)c(C)c2)c2cc(Cl)c3cccnc3c2O)cc1` (stereo not given), for which, in data set [1], the half-life turned out to be 9 min. Besides, in data set [6], the IC50 was above 10 µM. The inhibition (INH) in data set [5] came to 25%.
Consider `COc1ccc(C(NC(=O)COc2ccc(C)cc2)c2cc(Cl)c3cccnc3c2O)cc1` (stereo not given), for which the inhibition (INH) in data set [5] turned out to be 78%.
`CN(CC(=O)NC(c1cccc(F)c1)c1cc(Cl)c2cccnc2c1O)Cc1ccccc1` (stereo not given): the half-life in data set [1] came out at 16 min. Further, the inhibition (INH) in data set [5] was 32%.
